In test [1] the test system is HCT-116. Briefly: Cytotoxicity against human HCT-116 cells assessed as reduction in cell viability by CCK8 assay. It counts as functional, cell-based.
In test [2] the test system is Mus musculus. Briefly: In vivo inhibition of IDO2 in BALB/c mouse xenografted with human HCT-116 cells assessed as suppression of IDO2 mRNA expression in tumor by quantitative RT-PCR analysis. Type of test: functional, organism-based.
Test [3] concerns Mus musculus. Briefly: In vivo inhibition of TDO in BALB/c mouse xenografted with human HCT-116 cells assessed as suppression of TDO mRNA expression in tumor by quantitative RT-PCR analysis. Type of test: functional, organism-based.
Test [4] has as its system CT26. The experiment in a line: Antitumor activity against mouse CT26 cells implanted in BALB/c mouse assessed as tumor growth inhibition at 50 mg/kg, ip bid for 28 days by vernier caliper method relative to control. It counts as functional. The note with it: CT26, 672 h, time 28 day, read-out: TGI.
Test [5] has as its system Mus musculus. Briefly: In vivo inhibition of IDO2 in BALB/c mouse xenografted with human HCT-116 cells assessed as suppression of IDO2 expression in tumor by immunohistochemical assay. It counts as functional, organism-based.
The subject of test [6] is Mus musculus. The experiment in a line: In vivo inhibition of IDO1/IDO2 in BALB/c mouse xenografted with human HCT-116 cells assessed as downregulation of Foxp3 mRNA expression in tumor by quantitative RT-PCR analysis. Type of test: functional, organism-based.
The subject of test [7] is HCT-116. Briefly: Antitumor activity against human HCT-116 cells xenografted in BALB/c nude mouse assessed as tumor growth inhibition at 300 mg/kg, ig bid for 21 days by vernier caliper method. The note with it: time 21.0 day. It counts as functional, organism-based.
The subject of test [8] is Mus musculus. Briefly: In vivo inhibition of IDO1/IDO2 in BALB/c mouse xenografted with human HCT-116 cells assessed as downregulation of Foxp3 expression in tumor by immunohistochemical assay. Type of test: functional, organism-based.
In test [9] the test system is Mus musculus. Briefly: In vivo inhibition of TDO in BALB/c mouse xenografted with human HCT-116 cells assessed as suppression of TDO expression in tumor by immunohistochemical assay. It counts as functional, organism-based.
Test [10] relates to CT26. The experiment in a line: Cytotoxicity against mouse CT26 cells assessed as reduction in cell viability by CCK8 assay. Type of test: functional, cell-based.
Another test relates to HT-29. The experiment in a line: Cytotoxicity against human HT-29 cells assessed as reduction in cell viability by CCK8 assay. Type of test: functional, cell-based.
Test [11] concerns the target Indoleamine 2,3-dioxygenase 1 (Homo sapiens, UniProt P14902).
The nature of test [12]: Inhibition of IDO1/IDO2 in IFNgamma/LPS-stimulated human PBMCs assessed as reduction in kynurenine formation pretreated with compound for 15 mins followed by IFNgamma/LPS stimulation by LC-MS/MS analysis. To be noted: PBMC. Type of test: tissue-based.

Calls of active or inactive are those of the source. The rule behind the calls is not given here.

Chain of Indoleamine 2,3-dioxygenase 1 (P14902 whole entry): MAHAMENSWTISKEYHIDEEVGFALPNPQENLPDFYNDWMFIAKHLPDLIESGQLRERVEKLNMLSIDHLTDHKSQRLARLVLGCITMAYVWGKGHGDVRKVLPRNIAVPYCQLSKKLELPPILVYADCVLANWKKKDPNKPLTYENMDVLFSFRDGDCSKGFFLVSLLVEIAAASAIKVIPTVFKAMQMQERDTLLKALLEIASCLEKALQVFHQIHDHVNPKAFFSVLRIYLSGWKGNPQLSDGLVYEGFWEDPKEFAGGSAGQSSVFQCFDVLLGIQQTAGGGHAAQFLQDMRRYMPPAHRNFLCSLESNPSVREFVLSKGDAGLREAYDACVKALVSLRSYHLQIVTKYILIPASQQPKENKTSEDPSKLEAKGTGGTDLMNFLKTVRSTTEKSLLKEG

For `NS(=O)(=O)NCCNc1nonc1/C(=N/O)Nc1ccc(F)c(Br)c1` [EPACADOSTAT], the figures for the IC50 in the test on HCT-116 [1], with CT26 [10] and with HT-29 were 37.1 µM, 47.1 µM and 63 µM, respectively. Also, the inhibition result in the test on Mus musculus [2], in the test with Mus musculus [3], in the test on Mus musculus [5], with Mus musculus [6], in the test with Mus musculus [8] and in the test with Mus musculus [9] was “inactive” in each case. Besides, the inhibition in vivo at 50 mg/kg with CT26 [4] amounted to 49.4%. Moreover, in the test on HCT-116 [7], the result was inactive.
Compound `C[C@]1([C@H](O)C[C@H]2c3c(F)cccc3-c3cncn32)CC[C@H](O)CC1` registered an IC50 in [11] of 0.007 µM.
Consider `CCOC(=O)N1CCC2(CC1)C[C@H](NC(=O)c1cccc3cn[nH]c13)c1cc(Br)ccc1O2`, for which the IC50 in test [12] worked out at 0.0054 µM.

Source of the values: ChEMBL document CHEMBL5055685, “Discovery of the First Potent IDO1/IDO2 Dual Inhibitors: A Promising Strategy for Cancer Immunotherapy” (J Med Chem, 2021).
